Data taken from article PMC6474360 (Biochemistry, 2018).

Tests used:
Type in all cases: binding
[1] = biological target: sperm whale myoglobin (ferrous Mb^II), H64Q mutant (Physeter macrocephalus, UniProt P02185, D123N/H65Q); assay: UV-vis titration
[2] = biological target: sperm whale myoglobin (ferrous Mb^II), V68A/I107Y mutant (Physeter macrocephalus, UniProt P02185, D123N/I108Y/V69A); assay: UV-vis titration
[3] = biological target: sperm whale myoglobin (ferric Mb^III), wild-type (Physeter macrocephalus, UniProt P02185, D123N); assay: UV-vis titration
[4] = biological target: sperm whale myoglobin (ferric Mb^III), H64A mutant (Physeter macrocephalus, UniProt P02185, D123N/H65A); assay: X-ray crystal structure
Chain of sperm whale myoglobin (ferric Mb^III), H64A mutant (P02185 whole entry H65A/D123N): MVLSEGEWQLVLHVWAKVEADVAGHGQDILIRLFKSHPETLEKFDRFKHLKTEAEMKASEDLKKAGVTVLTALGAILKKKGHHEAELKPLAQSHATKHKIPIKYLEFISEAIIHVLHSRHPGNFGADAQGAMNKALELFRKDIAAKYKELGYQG

Chain of sperm whale myoglobin (ferrous Mb^II), V68A/I107Y mutant (P02185 whole entry V69A/I108Y/D123N): as the sequence (P02185 whole entry H65A/D123N) above, with A65H, V69A, I108Y counted along it
Chain of sperm whale myoglobin (ferric Mb^III), wild-type (P02185 whole entry D123N): as the sequence (P02185 whole entry H65A/D123N) above, with A65H counted along it
Chain of sperm whale myoglobin (ferrous Mb^II), H64Q mutant (P02185 whole entry H65Q/D123N): as the sequence (P02185 whole entry H65A/D123N) above, with A65Q counted along it

Work on `O=NO` [nitrite] yielded a Kd [1] of 1.45 ± 0.3 mM, a Kd [2] of 19.4 ± 0.6 mM and a Kd [3] of 12.2 ± 2.2 mM. The Kd [4] was greater than 20 mM.
